Measurements reported in BindingDB's records for doi:10.1111/j.1600-0773.1996.tb00261.x (Uppsala University, 1996).
Where a SMILES comes first, the peptide text is derived from it. [ ]: non-standard residue; d: D form. Met(O2) = CS(=O)(=O)CC[C@H](N)C(=O)O

biological target: Melanocortin receptor 4 (Homo sapiens, UniProt P32245)
Sequence (P32245 whole entry): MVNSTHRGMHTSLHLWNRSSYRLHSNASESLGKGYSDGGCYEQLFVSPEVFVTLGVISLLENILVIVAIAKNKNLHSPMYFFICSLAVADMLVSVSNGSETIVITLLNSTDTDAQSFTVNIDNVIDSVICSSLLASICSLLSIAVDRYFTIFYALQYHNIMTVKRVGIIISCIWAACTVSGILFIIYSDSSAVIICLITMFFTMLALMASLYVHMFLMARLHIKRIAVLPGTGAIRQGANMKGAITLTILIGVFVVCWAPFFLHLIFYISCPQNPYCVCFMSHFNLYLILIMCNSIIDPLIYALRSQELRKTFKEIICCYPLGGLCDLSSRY

Compound | Ki
CS(=O)(=O)CC[C@H](N)C(=O)N[C@@H](CCC(=O)O)C(=O)N[C@@H](Cc1c[nH]cn1)C(=O)N[C@@H](Cc1ccccc1)C(=O)N[C@H](CCCCN)C(=O)N[C@@H](Cc1ccccc1)C(=O)O [CAS_50913-82-1] (H-[Met(O2)]EHF[dK]F-OH) | > 10 µM
CSCC[C@H](N)C(=O)N[C@@H](CCC(=O)O)C(=O)N[C@@H](Cc1cnc[nH]1)C(=O)N[C@@H](Cc1ccccc1)C(=O)N[C@@H](CCCNC(=N)N)C(=O)N[C@@H](Cc1c[nH]c2ccccc12)C(=O)NCC(N)=O [NSC_123787] | > 10 µM
H-SMEVRGW-OH [delta MSH] | > 10 µM
H-SYSMEHFRWGKPVGKKRRPVKVYPNGAEDESAEAFPLEF-OH [ACTH] | 0.693 µM
H-YVMGHFRWDRFGRRNGSSSSGVGGAAQ-OH [Gamma3-MSH] | > 10 µM
